Here are results for eleven compounds from patent publication US20060281767A1, “Triazoloypyrimidines” (BAYER CROPSCIENCE AKTIENGESELLSCHAFT, priority 2003, published 2006).

Broadly, the chromatographic logP is a lipophilicity value derived from retention on a column.

Some results are limits rather than exact numbers.

For the first series, the system named is Venturia inaequalis. In words: Venturia test (apple)/protective. The settings on record: protective spray, assessment 10 days after inoculation, 0% = control, 100% = no attack. Format: in vivo. An excerpt: Venturia Test (apple)/protective • Solvent: 24.5 parts by weight of acetone • 24.5 parts by weight of dimethylacetamide • Emulsifier: 1 part by weight of alkyl-aryl-polyglycolether One part by weight of active substance is mixed with the specified quantities of solvent and emulsifier and the concentrate diluted with water to the desired concentration to prepare a suitable active substance preparation. To test the protective efficiency, young plants are sprayed with the active substance preparation in the specified amount. After drying the spray coating, the plants are inoculated with an aqueous conodia suspension of the apple scab pathogen Venturia inaequalis and are then left for 1 day at about 20° C. and 100% relative humidity in an incubation cabinet. The plants are then placed in a greenhouse at about 21° C. and a relative humidity of about 90%. The assessment is made 10 days after the inoculation. In this situation 0% means an efficiency corresponding to that of the control whereas an efficiency of 100% means that no attack is observed.
In the case of `CC(C)C(C)Sc1c(-c2ncncc2Cl)c(Cl)nc2ncnn12` (stereo not drawn) [Example 2], the efficiency is greater than 90%.

Tested on in another series: not listed separately
In words: LogP determination by HPLC (EEC-Directive 79/831 Annex V. A8). Format: physicochemical. Particulars: HPLC with acetonitrile/0.1% aqueous phosphoric acid gradient, gradient method.
On to `FC(F)(F)c1cccnc1-c1c(Cl)nc2ncnn2c1Cl` [Example 5, 5,7-dichloro-6-(3-trifluoromethyl-pyridin-2-yl)-[1,2,4]triazolo[1,5-a]pyrimidine], for which the chromatographic logP was 1.97. On the same count and under the same terms, the value for `CC(Oc1c(-c2ncncc2Cl)c(Cl)nc2ncnn12)C(F)(F)F` (stereo not drawn) [Example 1, 5-chloro-6-(5-chloro-pyrimidin4-yl)-7-(2,2,2-trifluoro-isopropoxy)[1,2,4]triazolo[1,5-a]pyrimidine] was 2.43; that for `Clc1cncnc1Cl` [Example 15, 4,5-dichloropyrimidine] was 1.35; that for `Clc1ncsc1-c1c(Cl)nc2nc(C3CC3)nn2c1Cl` [Example 9, 5,7-dichloro-2-cyclopropyl-6-(4-chloro-thiazol-5-yl)-[1,2,4]-triazolo[1,5-a]pyrimidine] was 2.46.

The compound `Oc1nc2ncnn2c(O)c1-c1ncncc1Cl` [Example 11, 6-(5-chloro-4-pyrimidinyl)[1,2,4]triazolo[1,5-a]pyrimidin-5,7-diole] had a chromatographic logP of -0.23. `COC(=O)C(C(=O)OC)c1ncccc1C(F)(F)F` [Example 13, 2-[(3-trifluoromethyl)-pyridin-2-yl]-malonic acid dimethylester] yielded a chromatographic logP of 2.05. On the same count and under the same terms, the value for `Clc1cncnc1-c1c(Cl)nc2ncnn2c1Cl` [Example 6, 5,7-dichloro-6-(5-chloro-4-pyrimidinyl)[1,2,4]triazolo[1,5-a]pyrimidine] was 1.43. The same measure, in the same setting: the value for `COC(=O)C(C(=O)OC)c1ncncc1Cl` [Example 14, 2-(5-chloro-pyrimidin-4-yl)-malonic acid dimethylester] was 1.33; that for `Oc1nc2nc(C3CC3)nn2c(O)c1-c1scnc1Cl` [Example 12, 2-cyclopropyl-6-(4-chloro-thiazol-5-yl)-[1,2,4]triazolo[1,5-a]pyrimidin-5,7-diol] was 0.1.

`Oc1nc2ncnn2c(O)c1-c1ncccc1C(F)(F)F` [Example 10, 6-(3-trifluoromethyl-pyridin-2-yl)-[1,2,4]triazolo[1,5-a]pyrimidin-5,7-diole] had a chromatographic logP of -0.23.

`CC(C)C(C)Sc1c(-c2ncncc2Cl)c(Cl)nc2ncnn12` (stereo not drawn) [Example 2]: the chromatographic logP is 3.07.
